Where “and” joins values, the source holds several entries; their conditions need not be identical. Equal entries are not always repeated.
Assays:
[1] = system: MX-1 (mammary) human tumor xenograft; test: MX-1 human mammary tumor xenograft (subrenal capsule), tumor weight evaluation; format: in vivo, human tumor in female athymic (nude) mice; settings: single dose
Description: (§1) Tumor cells were inoculated ip(intraperitonal) into female, athymic, mice, being either MX-1 (mammary) or LOX (amelanotic melanoma) human tumor xenograph models. The human xenograft tumors were formed by heterotransplantation of surgically removed human tumors into the subrenal capsule of the nude mice. […] The hydrochloride salts of the compounds, designated H, K, and L, and the free base of H, as identified on Table I were administered to the viable human xenograft tumors by a single dose subcutaneous renal cavity (MX-1) injection or interperitonal (LOX) injection to the nude mice test animal in a suspension of 0.9% aqueous sodium chloride solution with "tween-80" and distilled water. The tested compounds were tested against a known cancer tumor inhibiting compound (control) 2,3-dihydro-5-(3'-4'-dichloropheny1)-6,7-bis(n-propylcarbanoxymethylcarbonate)-1H-pyrollizine.
(§2) In both the MX-1 and LOX model, results were expressed as a percentage of the test animal evaluation (T) compared to that for the control (C) and was reported as %T/C. These values are based on all mice in the test.
In the MX-1 model %T/C was evaluated from an estimate of tumor weight in untreated mice as compared to an estimate of tumor weight in treated mice. In such tumor weight evaluation, a low %T/C indicates effective treatment as the tumors of the treated mice are smaller than tumors of the untreated control mice.
(§3) The data presented comprises findings at optimal dosages of particularly effective compounds of the invention as compared to the control.

[2] = system: LOX (amelanotic melanoma) human tumor xenograft; test: LOX human amelanotic melanoma xenograft, survival evaluation; format: in vivo, human tumor in female athymic (nude) mice; settings: single dose
Description: as §1, §2
In the LOX model %T/C was evaluated by survival, meaning that the mean survival time of mice of the control group surviving (C) is compared to the mean survival time of mice who survived the test with treatment (T).
as §3

[3] = hygroscopicity of the hydrochloride salt (observation); format: physicochemical; settings: crystalline hydrochloride salt
Description: A solution of the 1-n-propyl-2-methylthio-4,5-bis(N-methyl carbonyloxymethyl)imidazole prepared in Example XVI (1.72 g; 5.21 mmol) in anhydrous dichloromethane (50 mL) was stirred at 0°-5° C. while anhydrous hydrogen chloride gas was bubbled into the solution for 5 minutes through a gas dispersion tube. […] The residue was dried in vacuo for 10 minutes and dissolved in anhydrous dichloromethane (40 mL). The solution was reduced in volume to 10 mL to induce crystallization. Once crystallization had begun, methylene chloride (20 mL) was added and the cold (0° C.) solution was triturated for 10 minutes.

[4] = system: lymphocytic leukemia P-388; test: P-388 lymphocytic leukemia test in mice (NCI Protocol 1.200); format: in vivo, CDF1 female mice; settings: for BWD (body weight difference vs control) / KE (log tumor cell population end vs before treatment) / Tox.Day Surv. (survivors/animals tested): daily for 5 days; for Tox.Day Surv. (survivors/animals tested): day 5
Description: Various bis(acyloxymethyl)imidazole derivatives prepared in accord with Examples I-XVIII and designated Samples A-J, were tested for anti-tumor activity in vivo using the lymphocytic leukemia P-388 test procedure in mice with Samples A and B representing controls. The test system was that employed by the National Cancer Institute (NCI) for the preliminary screening of anti-tumor agents, according to Protocol 1.200 (Cancer Chemo. Reports Part 3, Vol. 3, No. 2, page 9; 1972). In the study ascitic fluid containing 6×10^6 cells was implanted in the peritoneal cavity of CDF1 female mice. Each imidazole was given in a single injection, at four to six different dose levels (5-6 mice/dose level) daily for five (5) days beginning 24 hours after tumor innoculation. The control animals received saline. Test criteria was in accord with NCI protocol as follows: toxicity day evaluations were carried out on day 5 (number of survivors/number of animals tested); % T/C data was calculated through mean survival time [% T/C=(MST treated/MST control)x100, where MST=mean survival time]; BWD refers to the body weight difference (grams) of test animals compared to control animals; KE refers to the log of the tumor cell population at the end of treatment relative to tumor cell population before treatment.
Table I sets out the identification of the compounds corresponding to the samples used in this and further Examples. Table II sets out the results of the P-388 tests.

[5] = optimal dosage 240 mg/kg, hydrochloride salt
[6] = Mus musculus, P388, 120 h, read-out: % T/C (mean survival time)
[7] = optimal dosage 115 mg/kg, hydrochloride salt
[8] = optimal dosage 200 mg/kg, free base
[9] = optimal dosage 100 mg/kg, free base, listed as H (Free base)
[10] = optimal dosage 135 mg/kg, hydrochloride salt

## CCCn1c(SC)nc(COC(=O)NC)c1COC(=O)NC [K, 1-n-propyl-2-methylthio-4,5-bis-(N-methylcarbonyloxymethyl)imidazole]
[1]; [5]
  MX-1 Cures: 6/6
[2]; [5]
  LOX % T/C Survl.: 191%
  LOX Cures: 1/6
[3]
  hygroscopicity: slightly hygroscopic

## CNC(=O)OCc1nc(SC)n(C)c1COC(=O)NC [H, 1-methyl-2-methylthio-4,5-bis-(N-methylcarbonyloxymethyl)imidazole]
[4]; 6.25 mg/kg/inj
  BWD (body weight difference vs control): -0.7 g
  KE (log tumor cell population end vs before treatment): -0.83
  Tox.Day Surv. (survivors/animals tested): 5/6
[4]; 12.5 mg/kg/inj
  BWD (body weight difference vs control): -1.2 g
  KE (log tumor cell population end vs before treatment): 1.05
  Tox.Day Surv. (survivors/animals tested): 6/6
[4]; 25 mg/kg/inj
  BWD (body weight difference vs control): -1.4 g
  KE (log tumor cell population end vs before treatment): 1.05
  Tox.Day Surv. (survivors/animals tested): 6/6
[4]; 50 mg/kg/inj
  BWD (body weight difference vs control): -2.6 g
  KE (log tumor cell population end vs before treatment): 4.21
  Tox.Day Surv. (survivors/animals tested): 6/6
[4]; 100 mg/kg/inj
  BWD (body weight difference vs control): -4.1 g
  KE (log tumor cell population end vs before treatment): 6.75
  Tox.Day Surv. (survivors/animals tested): 6/6
[4]; [6]
  response vs control in vivo at 6.25 mg/kg: 125%
  response vs control in vivo at 12.5 mg/kg: 147%
  response vs control in vivo at 25 mg/kg: 147%
  response vs control in vivo at 50 mg/kg: 184%
  response vs control in vivo at 100 mg/kg: 236%
[1]; optimal dosage 100 mg/kg, free base
  MX-1 % T/C wt.: -73%
[1]; [7]
  MX-1 % T/C wt.: -63%
[1]; [8]
  MX-1 % T/C wt.: -56%
  MX-1 Cures: 2/6
[2]; [9]
  LOX % T/C Survl.: 365% and 233%
  LOX Cures: 5/6 and 2/6
[2]; [7]
  LOX % T/C Survl.: 234%
  LOX Cures: 2/6

## CCCCCCn1c(SC)nc(COC(=O)NC)c1COC(=O)NC [L, 1-n-hexyl-2-methylthio-4,5-bis-(N-methylcarbonyloxymethyl)imidazole]
[1]; optimal dosage 270 mg/kg, hydrochloride salt
  MX-1 Cures: 6/6
[2]; [10]
  LOX % T/C Survl.: 208%
  LOX Cures: 1/6
